In patent US9981961B2, “Deoxycytidine kinase inhibitors” (The Regents of the University of California, priority 2013, dated 2018):

Legend:
Solubility statement = type: physicochemical
[1] = Pharmacokinetics of DI-39 in plasma and tumor tissue (LC/MS/MS-MRM); type: in vivo; conditions: mouse, ip
Procedure: To determine the pharmacokinetic profile of DI-39, C57Bl/6 female mice were dosed with DI-39 via intraperitoneal injection following the protocol that was described previously (Murphy et al., 2013). Dose formulation include 10% DMSO and 40% Captisol (SBE-β-CD, a polyanionic variably substituted sulfobutyl ether of β-cyclodextrin, (Stella and He, 2008)) in water. Approximately 75 μL of whole blood was obtained at various time points starting 5 to 360 minutes through retro-orbital sinus bleed using hematocrit capillary tubes. Approximated values of the Area Under the Curve (AUC), clearance rate (CL), half-life (T1/2), maximum concentration in the plasma (Cmax) and time to reach the maximum concentration (Tmax) were calculated using Boomer/Multi-Forte P K Functions from Microsoft Excel.
For the DI-39 tumoral and plasma uptake study using LC/MS/MS-MRM, tumor-bearing NSG mice were injected with 50 mg/kg DI-39 intraperitoneally at 0, 2, 4, 8 and 12 hours prior to sacrifice. […] The ion transitions for DI-39 and DI-70 (525.2→383.3 and 550.2→408.2 respectively) were recorded under previously optimized conditions. […]

[2] = Tolerability in NSG mice (body weight, peripheral blood counts); type: in vivo; conditions: twice/day for 7 days, alone or in combination with dT
Source text: All mice were anesthetized and whole blood was obtained through cardiac puncture. For peripheral blood counts, samples were collected in tubes containing EDTA and submitted to UCLA Division of Lab Animal Medicine for analysis.

[3] = system: dCTP and dTTP pools of CEM cells; test: Intracellular dNTP pool measurement in CEM cells; type: cell-based, human; conditions: 24 hr; for decrease of dCTP pool: DI-39 1 μM, dT 50 μM, or both
[4] = system: CEM leukemic cells in bone marrow; test: Systemic T-ALL model (CEM cells injected intravenously); type: in vivo, NSG mice; conditions: dT 2 g/kg every 12 hr
Procedure: Ten μL of blood was collected via tail vein nick and mixed with 2 μL 50 mM EDTA. One μL of blood was mixed with 99 μL PBS and transferred to a 96 well OptiPlate (Perkin Elmer). One hundred μL of 20 μM coelenterazine substrate was mixed and luciferase activity was measured using a plate luminescence microplate reader SpectraMax L (Molecular Devices). Systemic tumor models were established by intravenous injection of 10^6 CEM dCK^wt-sGluc-GFP or dCK^low-sGluc-GFP in 100 μL RPMI.

[5] = system: NSP-produced dCTP incorporated into DNA of CEM cells; test: Stable isotope labeling of dCTP biosynthesis in CEM cells; type: cell-based, human; conditions: 12 hr labeling, dT treatment
[6] = target: dCK activity in CCRF-CEM tumor xenografts (Homo sapiens, UniProt P27707)
Chain of dCK activity in CCRF-CEM tumor xenografts (P27707 whole entry): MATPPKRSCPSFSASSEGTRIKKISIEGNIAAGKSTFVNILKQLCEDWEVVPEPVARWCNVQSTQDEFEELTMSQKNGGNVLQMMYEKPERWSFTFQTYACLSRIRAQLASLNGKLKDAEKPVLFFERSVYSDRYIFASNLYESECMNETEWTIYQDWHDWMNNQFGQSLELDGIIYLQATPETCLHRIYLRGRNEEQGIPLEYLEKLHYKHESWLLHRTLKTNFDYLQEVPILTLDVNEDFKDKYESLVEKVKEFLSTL
Procedure: Four hours post-treatment mice were injected intravenously with 70 μCi of ^18F-L-FAC. For all mPET/CT studies, a 1 h interval was allowed between probe administration and mPET/CT scanning (Inveon, Siemens Medical Solutions USA Inc.; microCAT, Imtek Inc.). Static mPET images were acquired for 600 s. Images were analyzed using OsiriX Imaging Software Version 3.8.

[7] = system: NSP-produced dCTP incorporated into tumor DNA; test: [U-13C/15N]-dC incorporation into DNA of CEM tumor xenografts; type: in vivo, NSG mice; conditions: dCK^wt CEM tumors, dT 2 g/kg single dose, 4 hr
Procedure: For the in vivo studies, tumor-bearing mice were injected with 200 μL, of 2.5 mM [U-^13C/^15N]-deoxycytidine 30 min prior to sacrifice. Tumors were harvested, mechanically digested into single cells, and cell counts were obtained. DNA extraction was carried out as described above.
DNA hydrolysis samples were diluted 1/1 with solvent A (water/formic acid, 100/0.2, v/v) and analyzed using a modified version of a previously reported method (Cohen et al., 2009) in which aliquots of the solution (10 μL) were injected onto a porous graphitic carbon column (Thermo Hypercarb, 100×2.1 mm, 3 micron particle size) equilibrated in solvent A and eluted (300 μL/min) with an increasing concentration of solvent B (acetonitrile/min/% B; 0/0, 6/60, 6.1/100, 9/100, 9.1/0, 10/0). […] After verification of retention times using authentic standards, the peak areas of the MH^+→fragment ion transitions for the dC isotopomers (M0, 228.1→112.1; M1, 229.1→112.1; M2, 230.1→112.1; M3, 231.1→112.1; M4, 232.1→112.1; M5, 233.1→112.1; M6, 234.1→113.1; M7, 235.1→114.1; M8, […]; […]; M11, 239.1→118.1; and M12, 240.1→119.1) were recorded with instrument manufacturer-supplied software (Agilent MassHunter), and normalized to cell number. The dC isotopomers of M3 through M8 for the DNP and M11 through M12 for NSP were detected and used for data analysis.

[8] = Plasma thymidine level after dT injection; type: in vivo, NSG mice
Procedure: NOD SCID gamma (NSG) mice were injected with 2 g/kg dT intraperitoneally; 75 μL of whole blood was obtained at 0, 2, 4, and 8 hr through retro-orbital sinus bleed using hematocrit capillary tubes. Whole blood was immediately centrifuged at 3000× g for 5 min to isolate serum; 30 μL of serum was mixed with 1 mL methanol:acetonitrile (1:9), vortexed for 2 min, centrifuged at 14,000× g for 4 min at 4° C. Extraction was repeated and the pooled supernatant was dried under vacuum centrifugation. The residue was dissolved in 100 μL water, filtered and eluted through a Waters microBondapak C18 column under a gradient mobile phase from 2% methanol to 50% methanol over ten minutes at a flow rate of 1.5 mL/min.

Row | Compound | solubility in aqueous saline solutions (Solubility statement) | half-life ([1]; female, plasma, C57Bl/6 mice, intraperitoneal injection) [min] | concentration at 8 hr ([1]; 8 hr after single dose administration, 50 mg/kg intraperitoneal, CEM tumor-bearing NSG mice, read-out: drug present in tumor tissues) [µM] | effect on body weight [2] | effects on RBCs, hemoglobin, platelets or neutrophils [2] | decrease of dCTP pool [3] [%] | fold reduction in percentage of leukemic cells in bone marrow relative to vehicle and DI-39 treated groups [4] [fold] | fold increase over baseline of utilization of NSP-produced dCTP for DNA synthesis [5] | increase of 18F-L-FAC accumulation [6] [%] | fold increase of dTTP ([3]; 50 μM dT) [fold] | fold reduction of dCTP ([3]; 50 μM dT) [fold] | fold increase of labeled dCTP incorporation into DNA [7] [fold] | concentration at 8 hr ([8]; NOD SCID gamma (NSG), mouse, plasma, ip, at 8 hr after single injection 2 g/kg intraperitoneally, read-out: plasma dT, declined to baseline values) [µM] | plasma dT peak ([8]; two hours after single injection 2 g/kg intraperitoneally) [mM]
1 | CCCc1sc(-c2ccc(OC)c(OCCNS(C)(=O)=O)c2)nc1CSc1nc(N)cc(N)n1 [Compound 37, N-(2-(5-(4-(((4,6-diaminopyrimidin-2-yl)thio)methyl)-5-propylthiazol-2-yl)-2-methoxyphenoxy)ethyl)methanesulfonamide] | limited solubility | ~50 | ~0.015 | did not affect body weight | no detectable effects | ~30 |  |  |  |  |  |  |  | 
2 | Cc1cn([C@H]2C[C@H](O)[C@@H](CO)O2)c(=O)[nH]c1=O [dT, thymidine] |  |  |  |  |  | ~30 | ~7 | more than 3 fold | ~20 | ~20 | ~5 | ~3 | ~10 | 1.5
